Converted amounts (≈) assume the structure as drawn. Read-outs that look alike come from different tables or passages of the source.
Tests used:
G. swidsinskii (Gv_23) = test: MIC and MBC microbroth dilution; format: cell-based, Gardnerella swidsinskii; conditions: for MIC / MBC: Gardnerella swidsinskii; for MIC: 48 h
Method: (§1) One of the main deficiencies in the treatment of BV is the high rate of recurrence in many women, which leads to repeated administration of antibiotics and concomitant destabilization of the microbiome and other side effects. The minimal inhibitory concentration (MIC) and minimal bactericidal concentration (MBC) on Gardnerella cells of the strains also used for the endolysin activity assays were then measured using the method described in Reference Example 6 and 7. […] Essentially, Gardnerella suspensions at 2.5×10^7 CFU/ml were incubated with the concentration of antibiotics as indicated and incubated for 48 h at 37° C. under anaerobic conditions. […] OD(610) was measured at the beginning and the end of the experiment. At the end of the experiment, 2 ul of each reaction mix was spotted on agar to determine the MBC.
(§2) The conditions under which MIC and MBC were measured are more rigorous than the standard.
(§3) Example 7—Activity assays of a representative (H2B10) of domain swapped endolysins on the growth in suspension of different Gardnerella strains. […] The conditions under which MBC was measured are more rigorous than the standard. […] In general, it is known, that antibiotics only insufficiently eradicate the Gardnerella biofilm, a hallmark of BV, which is one suspected reason for the reported very high recurrence rate of BV. Despite leaving residual viable biofilm, antibiotics wipe parts of the beneficial organisms of the vaginal microbiome which then opens an ecological niche for other pathogens, e.g. fungi.
(§4) Bacteria were plated from cryo stock on BD Choc Agar plates (Gardnerella) and incubated at 37° C. for 48 h under anaerobic conditions. Colonies were scraped from the plate, resuspended in Hardy Broth or NYC-III-HS-pH 5.0, and the suspension adjusted to OD (610 or 620 nm as indicated) 0.05. It has to be noted that two Tecan Microplate readers, having respectively a 610 nm or 620 nm filter, have been used interchangeably in the experiments. Although it doesn't make any difference for the experiments, the exact wavelength used is specified in each example. Antibiotics were prepared as 20× stocks for each of the required final concentrations. 95 μl of cell suspension was mixed with 5 μl antibiotics dilution in a 384-well plate. OD (610-620 as indicated) at the start of the reaction was measured, then the plate was incubated at 37° C. for 48 h under anaerobic conditions. After that, the OD (610-620 as indicated) was measured again for MIC determination, where MIC was defined as the lowest concentration of antibiotic where the OD (610-620 as indicated) was not above the level measured at the beginning of the experiment. After measuring OD, 2 μl of each well were spotted on a NYC-III+HS Agar plate. The plates were then incubated for further 48 h at 37° C. under anaerobic conditions. After incubation, cell growth on each spot was evaluated, and the MBC defined as the lowest concentration of antibiotics where no bacteria grew on the plate. The experiments were conducted in triplicate for each condition. In the second round of MIC and MBC experiments with antibiotics the Gardnerella cell suspension was adjusted to the McFarland standard 0.5 (approximately OD (610) 0.07) and then diluted 1:75 according to the CLSI (Clinical and Laboratory Standards Institute) standards. Antibiotics were prepared according to the CLSI standards and 50 μl of cell suspension was mixed in a 96-well plate with 50 μl antibiotics. Otherwise the MIC and MBC was determined as described above.

G. leopoldii (Gv_11) = test: MIC and MBC microbroth dilution; format: cell-based, Gardnerella leopoldii; conditions: for MIC / MBC: Gardnerella leopoldii; for MIC: 48 h
Method: as §1, §2, §3, §4

[1] = system: all tested Gardnerella strains; test: MIC and MBC microbroth dilution, stated over all tested strains; format: cell-based; conditions: for MIC: Gardnerella
Method: as §1, §2, §3
Bacteria were plated from cryo stock on BD Choc Agar plates (Gardnerella) and incubated at 37° C. for 48 h under anaerobic conditions. Colonies were scraped from the plate, resuspended in Hardy Broth or NYC-III-HS-pH 5.0, and the suspension adjusted to OD (610 or 620 nm as indicated) 0.05. It has to be noted that two Tecan Microplate readers, having respectively a 610 nm or 620 nm filter, have been used interchangeably in the experiments. Although it doesn't make any difference for the experiments, the exact wavelength used is specified in each example. Antibiotics were prepared as 20× stocks for each of the required final concentrations. […] OD (610-620 as indicated) at the start of the reaction was measured, then the plate was incubated at 37° C. for 48 h under anaerobic conditions. After that, the OD (610-620 as indicated) was measured again for MIC determination, where MIC was defined as the lowest concentration of antibiotic where the OD (610-620 as indicated) was not above the level measured at the beginning of the experiment. […] After incubation, cell growth on each spot was evaluated, and the MBC defined as the lowest concentration of antibiotics where no bacteria grew on the plate.

[2] = first round: […]10^7 CFU/ml, Hardy broth, 384-well, 48 h 37° C. anaerobic
[3] = second round: 1×10^5-1×10^6 CFU/ml (CLSI), NYC-III broth, 96-well, 48 h anaerobic
[4] = second round: 1×10^5-1×10^6 CFU/ml (CLSI), NYC-III broth, 96-well
[5] = first round: 2.5×10^7 CFU/ml, minimal concentration fully eradicating the suspension

MIC (G. swidsinskii (Gv_23); [2]): > 128 µg/mL
MIC (G. swidsinskii (Gv_23); [3]): 32 µg/mL (≈ 187 µM)
resistance class of MIC, Metronidazole (G. swidsinskii (Gv_23); first round): R (>=32 μg/mi for Metronidazole)
resistance class printed with MIC, Metronidazole (G. swidsinskii (Gv_23); second round): R (>=32 μg/mi for Metronidazole)
MIC (G. leopoldii (Gv_11); [2]): > 128 µg/mL
MIC (G. leopoldii (Gv_11); [3]): 128 µg/mL (≈ 748 µM)
resistance class of MIC, Metronidazole (G. leopoldii (Gv_11); first round): R (>=32 μg/mi for Metronidazole)
resistance class printed with MIC, Metronidazole (G. leopoldii (Gv_11); second round): R (>=32 μg/mi for Metronidazole)
MIC ([1]; 48 h, first round: […]10^7 CFU/ml, 48 h anaerobic (FIG. 14), read-out: MIC over all Gardnerella strains): 64 to 128 µg/mL (≈ 374 to 748 µM)
MIC ([1]; second round: 1×10^5-1×10^6 CFU/ml (FIG. 15), read-out: MIC over all tested Gardnerella strains): 8 to 128 µg/mL (≈ 46.7 to 748 µM)
Structure (SMILES): Cc1ncc([N+](=O)[O-])n1CCO [Metronidazole]
MBC (G. swidsinskii (Gv_23); [4]): > 128 µg/mL
MBC (G. swidsinskii (Gv_23); [5]): > 128 µg/mL
resistance class given with MBC, Metronidazole (G. swidsinskii (Gv_23); second round): R (>=32 μg/mi for Metronidazole)
MBC (G. leopoldii (Gv_11); [4]): > 128 µg/mL
MBC (G. leopoldii (Gv_11); [5]): > 128 µg/mL
resistance class given with MBC, Metronidazole (G. leopoldii (Gv_11); second round): R (>=32 μg/mi for Metronidazole)
susceptibility of the Gardnerella strains, in words ([1]; MIC microbroth dilution): resistant
